US7683061B2, “Triazine dimers for the treatment of autoimmune diseases” (ProMetic BioSciences Inc., priority 2003, dated 2010)

Key:
[1] = tested on: TNFα-induced apoptosis, WEHI-13VAR cells; assay: TNFα induced apoptosis in WEHI-13VAR cells (MTT); format: cell-based, murine; settings: Mus musculus
Protocol: Effect of compounds on TNFα-induced apoptosis was measured by a standard biological assay using WEHI-13VAR cells. These cells undergo apoptosis when they are incubated in the presence of TNFα and actinomycin D. 2×10^4 WEHI-13VAR cells were incubated in RPMI supplemented with 1% sodium pyruvate and 10% FBS, overnight at 37° C. for cell adherence. The cells were then cultured in the presence of 1 μg/mL of actinomycin D (to inhibit protein synthesis) and 0.04 nM TNFα with or without compounds at 37° C. After 16-24 h, 50 μL of a solution of 2 mg/mL of MTT was added to each well and the plate was then incubated for 4 h at 37° C. Only viable cells metabolize MTT to form formazan salt, which is detectable by the measurement of absorbance at 570 nm. After the incubation, the plate was inverted to remove medium and dead cells. 150 μL DMSO was added to each well to stop the reaction and solubilize the formazan salt. Optical density was read on a EL 800, universal Microplate reader (Bio-Tek). A decrease in the optical density is direct evidence of cell apoptosis induced by TNFα. Compounds were also compared to the activity of an anti-TNFα neutralizing antibody.

[2] = molecular target: TNFα / p75 TNFα receptor (CD120b) (Homo sapiens, UniProt P01375); assay: Binding ELISA: sTNF-R2 binding to plastic coated TNF-α
TNFα / p75 TNFα receptor (CD120b), sequence (P01375 77-233 limits assumed): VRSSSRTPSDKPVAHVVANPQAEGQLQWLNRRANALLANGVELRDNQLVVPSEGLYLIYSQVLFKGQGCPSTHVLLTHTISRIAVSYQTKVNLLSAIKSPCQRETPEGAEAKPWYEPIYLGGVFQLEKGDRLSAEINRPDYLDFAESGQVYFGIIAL
Protocol: Compounds were tested for their ability to bind to TNFα or inhibit the interaction of TNFα with its respective receptors; p55 and p75 TNFα receptor. Three binding ELISA assays were undertaken as described by Mancini et al. Biochemical Pharmacology 58, 851-859 (1999). TNFα or receptor (1 μg/mL) was coated on a 96-well plate Maxisorp, overnight at 4° C. After incubation, unbound TNFα or p55 TNFα receptor or p75 TNFα receptor was removed and the plate washed three times with PBS. The plate was then incubated with 100 μL/well of a 2% BSA solution for 1 h at 37° C. to block non specific protein binding. After incubation, the plate was washed three times with PBS. Biotinylated recombinant human TNFα p55 or p75 receptor or biotinylated recombinant human TNFα was added to the wells in the presence or absence of compounds. The plate was incubated for 1 h at 37° C. After incubation, the plate was washed three times with PBS to remove unbound labeled p55 or p75 receptor or recombinant human TNFα. 100 μL of avidin-HRP (diluted 1/2000 in PBS-0.1% BSA) was added to each well and incubated 1 h at 37° C. Bound p55 or p75 receptor or recombinant human TNFα was detected by the addition of 200 μL of 3,3′,5,5′-tetramethylbenzidine (TMB) per well for 15 min. The plate was then read at 655 nm on a EL 800 universal Microplate reader (Bio-Tek, Mississauga, Canada). Data was analyzed in Microsoft Excel and recorded as the percentage of inhibition of p55 or p75 binding to TNFα or TNFα binding to RI (p55) or RII (p75).

[3] = tested on: TNFα production, J774A-1 cells; assay: LPS-induced TNFα production in J774A-1 cells (ELISA); format: cell-based; settings: Mus musculus, J774.A1, 24 h, read-out: IC50 (μM), inhibition of TNFα released by LPS induction
Summary of the method: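 J774-1 macrophages were cultured with or without LPS and compound at 37° C for 24 h. TNFα in supernatants measured by ELISA; IC50 is the concentration inhibiting 50% of TNFα production.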

[4] = tested on: peripheral blood mononuclear leukocytes (PBML); assay: PBML DNA synthesis (thymidine); format: cell-based, human; settings: for IC50: Homo sapiens, Leukocyte; for effect on DNA synthesis (in words): resting and stimulated (ConA and PWM) PBML
Text: (§1) PBML were obtained from the peripheral blood of healthy volunteers. Blood was submitted to gradient centrifugation with Lympholyte-poly (Cedarlane, Hornby, Canada). The layer, which contains the mononuclear leukocytes, was collected and the cells washed three times in PBS. Cells were then suspended in RPMI (Gibco, Burlington, Canada) supplemented with […] (cyclone, Logan USA). Viability was greater than 99% as determined by trypan blue exclusion.
(§2) PBML were resuspended at 2×10^6 cells mL. 100 μL of PBML (2×10^5 cells) were incubated in a 96-well microtiter plate for 48 h in the presence or absence of compound or protein A. Cells were quiescent or stimulated with concanavalin A (ConA; T-cells) or pokeweed mitogen (PWM; B-cells). After incubation, cells were treated with MTT (cytotoxicity) or pulsed with 1 μCi of [^3]-thymidine (DNA synthesis), [^3H]-uridine (RNA synthesis) or [^3]-leucine (protein synthesis) for 6 h. Plates were harvested on a Tomteck and counted on a Microbeta β-counter.

[5] = tested on: peripheral blood mononuclear leukocytes (PBML); assay: PBML RNA synthesis (uridine); format: cell-based, human; settings: for IC50: Homo sapiens, Leukocyte; for effect on RNA synthesis (in words): resting and stimulated (ConA and PWM) PBML
Text: as §1, §2

[6] = tested on: peripheral blood mononuclear leukocytes (PBML); assay: PBML protein synthesis (leucine); format: cell-based, human; settings: for IC50: Homo sapiens, Leukocyte; for effect on protein synthesis (in words): resting and stimulated PBML
Text: as §1, §2

[7] = tested on: female Lewis rats, adjuvant-induced arthritis; assay: Freund's adjuvant-induced arthritis (AIA); format: in vivo; settings: for reduction of the inflammatory index: intravenous days −3, −2, −1, 12, 13, 14, 18, 19 and 20, from day 3 to day 5, FIG. 10
Text: AIA was induced in female Lewis rats by the injection of lyophilized Mycobacterium butyricum suspended in mineral oil into the footpad. The development of aridity was monitored over a 3 weeks period post-adjuvant injection, inflammation peaks at day 3 following the adjuvant administration. Immune activation appears around day 14. Compounds were orally or intravenously administered at different doses at day −3, −2 and −1 pre-adjuvant injection and at different regimen as specified in the exponent starting from day 10 through 21 post-adjuvant injection or animals were treated with oral admiration of compound 19a from day −3 to day 21. Body weight was recorded. The arthritis index, which is a measure of inflammation (oedema), redness and stiffness of the articulations, was used to monitor the development of the disease. The degree of arthritis was determined by measuring two perpendicular diameters of the ankles in the mediolateral and dorsoventral planes using a caliper. Joint circumference in millimeters is then calculated using a geometric formula. Both the incidence and severity of the arthritis was evaluated. Incidence is defined as the number of rats with clinical evidence of joint inflammation during the study period.

SMILES	IC50 [3]	IC50 ([4]; ConA stimulated PBML)	IC50 ([4]; PWM stimulated PBML)	IC50 ([4]; Resting PBML)	effect on DNA synthesis (in words) [4]	IC50 ([5]; ConA stimulated PBML)	IC50 ([5]; PWM stimulated PBML)	IC50 ([5]; Resting PBML)	effect on RNA synthesis (in words) [5]	IC50 ([6]; ConA stimulated PBML)	IC50 ([6]; PWM stimulated PBML)	IC50 ([6]; Resting PBML)	effect on protein synthesis (in words) [6]	reduction of the inflammatory index [7]	further results
Oc1ccc(CCNc2nc(NCCNc3nc(NCCc4ccc(O)cc4)nc(Nc4ccccc4)n3)nc(Nc3ccccc3)n2)cc1 [Compound 1]	9.2 µM	1420 nM	770 nM	2490 nM	suppress	920 nM	660 nM	1100 nM	suppress	2440 nM	2960 nM	6480 nM	inhibit	20%	inhibition at 10 µM ([1]; 1 × 10^−5M): 36.8%; inhibition at 20 µM ([1]; 2 × 10^−5M): 17.7%; inhibition at 40 µM ([1]; 4 × 10^−5M): -3.8%; inhibition at 5 µM ([1]; 5 × 10^−6M): 14.3%; inhibition at 100 µM ([2]; 10^−4 M): 0%; inhibition at 10 µM ([2]; 10^−5 M): 0%
Nc1ccc(CCNc2nc(Nc3ccc(CCNc4nc(NCCO)nc(Nc5cccc(N)c5)n4)cc3)nc(Nc3cccc(N)c3)n2)cc1 [Compound 19a]	20.7 µM	1570 nM	4380 nM	1900 nM	suppress	693 nM	398 nM	399 nM	suppress	3910 nM	4880 nM	9900 nM	inhibit	20%	inhibition of chronic inflammation (days 12 to 21) ([7]; IV, days 12 to 19): strong and significant inhibition of inflammation; inhibition of chronic inflammation (days 12 to 21) ([7]; PO, day 16): strong and significant inhibition of inflammation; inhibition of inflammation ([7]; oral administration, acute inflammation, compared to the control and methotrexate): significant inhibition of inflammation; inhibition of inflammation ([7]; orally every day (days −3 to 21), from day 13 through day 22, FIG. 12): up to 50%
